Laboratory results reported in article PMC10041525, “New Dual Inhibitors of Bacterial Topoisomerases with Broad-Spectrum Antibacterial Activity and In Vivo Efficacy against Vancomycin-Intermediate Staphylococcus aureus” (Journal of Medicinal Chemistry, 2023).
In brackets after ≈: the same amount, converted by molar mass. Several values for one entry are separate records, joined by “and”; a condition that tells them apart may be missing. Identical values can stand only once. Like-named read-outs stand apart in the source and are kept apart here.

How the values were obtained:
[1] = tested on: S. aureus (MRSA) ATCC 43300; assay: MIC broth microdilution (CLSI); assay type: cell-based
Summary of the method: (§1)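 Using standard CLSI methodology, triplicate wells seeded at 5 × 10^4 cells in 100 μL cation-adjusted MHBII are incubated 18 h at 37 °C. The MIC corresponds to the drug concentration inhibiting culture growth as judged by OD600.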

[2] = tested on: S. aureus (VISA) ATCC 700699; assay: MIC broth microdilution (CLSI); assay type: cell-based
Summary of the method: as §1

K. pneumoniae ATCC 10031 = assay: MIC broth microdilution (CLSI); assay type: cell-based; conditions: Klebsiella pneumoniae, ATCC10031
Summary of the method: as §1

E. faecium ATCC 700221 = assay: MIC broth microdilution (CLSI); assay type: cell-based; conditions: Enterococcus faecium, ATCC700221
P. aeruginosa ATCC 27853 = assay: MIC broth microdilution (CLSI); assay type: cell-based; conditions: Pseudomonas aeruginosa, ATCC27853
Summary of the method: as §1

[3] = tested on: Enterobacter cloacae spp. cloacae ATCC 13047; assay: MIC broth microdilution (CLSI); assay type: cell-based; conditions: Enterobacter cloacae, ATCC13047
Summary of the method: as §1

E. coli ATCC 25922 = assay: MIC broth microdilution (CLSI); assay type: cell-based; conditions: Escherichia coli, ATCC25922
Summary of the method: as §1

[4] = tested on: 3 sensitive and 7 MDR A. baumannii clinical isolates; assay: MIC, Hungarian clinical isolates and controls (384-well); assay type: cell-based
in vitro = in vitro ADME, mouse; conditions: male; for recovery at 4 h, 5 μM: plasma protein binding assay
Description: The PPB studies were performed by Selvita d.o.o. (Zagreb, Croatia) in mouse plasma (CD-1 male, pooled, commercially obtained from BioIVT) via equilibrium dialysis. Compounds were assayed at 5 μM (0.5% DMSO) in two replicates, and incubation time was 4 h at 37 °C. Samples were taken at 0 min and 4 h. Aliquots from both buffer and plasma compartment matrix were matched and mixed with 6 volumes of STOP solution (acetonitrile/methanol (2:1) + internal standard – diclofenac) and analyzed by LC–MS/MS. Assay controls were caffeine (low), verapamil (moderate binding), and nicardipine (very high binding), and protein contamination was checked.

A. baumannii ATCC 17978 = assay: IHMA QC MIC; assay type: cell-based
Description: (§2) The panel of Hungarian clinical isolates and controls measured following the same method as detailed above, and albeit measurements were carried out in 384-well microtiter plates (Corning Inc.).

E. coli ATCC 35218 = assay: IHMA QC MIC; assay type: cell-based; conditions: Escherichia coli, ATCC35218, read-out: MIC (QC, repeated tests)
Description: as §2

Cc1[nH]c(C(=O)Nc2nc3c(N4CCOCC4)cc(C(=O)O)cc3s2)c(Cl)c1Cl [7a, 2-(3,4-Dichloro-5-methyl-1H-pyrrole-2-carboxamido)-4-morpholinobenzo[d]thiazole-6-carboxylic Acid]
MIC ([1]; Staphylococcus aureus): 0.0625 µg/mL
MIC ([1]; Staphylococcus aureus, read-out: MIC [µg/mL](S. aureus MRSA ATCC4330)): 0.25 µg/mL
MIC [2]: <0.03125 µg/mL
MIC ([2]; Staphylococcus aureus): < 0.0312 µg/mL
MIC (K. pneumoniae ATCC 10031): 0.5 µg/mL
MIC (E. faecium ATCC 700221): < 0.0312 µg/mL
MIC (P. aeruginosa ATCC 27853): 16 µg/mL
MIC [3]: > 64 µg/mL
MIC (E. coli ATCC 25922): 8 µg/mL
Cumulative % at MIC [4]: 80% and 100%
recovery at 4 h, 5 μM (in vitro; CD-1, mouse): 81.5%
fraction unbound at 4 h, 5 μM (in vitro; CD-1, mouse plasma, 5 µM, 4 h, read-out: fu, fraction unbound): 0.018
MIC (A. baumannii ATCC 17978; Acinetobacter baumannii, ATCC17978, read-out: MIC (QC, repeated tests)): 8 µg/mL (≈ 17.6 µM)
MIC (E. coli ATCC 35218): 4 µg/mL (≈ 8.78 µM)

Cc1[nH]c(C(=O)Nc2nc3c(N4[C@@H]5CC[C@H]4COC5)cc(C(=O)O)cc3s2)c(Cl)c1Cl [7h, 4-((1R,5S)-3-Oxa-8-azabicyclo[3.2.1]octan-8-yl)-2-(3,4-dichloro-5-methyl-1H-pyrrole-2-carboxamido)benzo[d]thiazole-6-carboxylic Acid]
MIC ([1]; Staphylococcus aureus; read-out: MIC): < 0.0312 µg/mL
MIC ([1]; Staphylococcus aureus; read-out: MIC [µg/mL](S. aureus MRSA ATCC4330)): < 0.0312 µg/mL
MIC ([2]; Staphylococcus aureus, read-out: MIC): 0.0625 µg/mL
MIC (K. pneumoniae ATCC 10031; read-out: MIC): 2 µg/mL
MIC (E. faecium ATCC 700221; read-out: MIC): < 0.0312 µg/mL
MIC (P. aeruginosa ATCC 27853; read-out: MIC): 4 µg/mL
MIC ([3]; read-out: MIC): 16 µg/mL
MIC (E. coli ATCC 25922; read-out: MIC): 4 µg/mL
Cumulative % at MIC [4]: 100%
fraction unbound at 4 h, 5 μM (in vitro; CD-1, mouse, plasma, fu, fraction unbound): 0.009
recovery at 4 h, 5 μM (in vitro; CD-1, mouse): 89%
MIC (QC, repeated tests) (A. baumannii ATCC 17978): 1 µg/mL (≈ 2.08 µM)
MIC (E. coli ATCC 35218): 2 µg/mL (≈ 4.15 µM)
